Data set [1] can be described thus: Membrane permeability test using Caco-2 cells with preincubation. It counts as in vitro ADME. To be noted: Caco-2; preincubation 20 to 24 hours; Apical FaSSIF/HBSS pH 6.0, Basal HBSS 4% BSA pH 7.4; 180 minutes; read-out: Caco2 Papp. Background: Passage across Caco-2 layers is used to estimate intestinal permeability.
The subject of a further data set is Caco-2 cells. The description is as above. In kind it is in vitro ADME. To be noted: Caco-2 cells, preincubation 20 to 24 hours; apical FaSSIF/HBSS 1% DMSO pH 6.0, basal HBSS 4% BSA pH 7.4; basal sample at 180 minutes.
Data set [2] can be described thus: Metabolic stability test: liver microsomal stability assay. To be noted: mouse liver microsomes 0.5 mg protein/mL, compound 1 µM; for microsomal CLint at 1 µM: male, pH 7.4, presence of NADPH, read-out: Mouse Hepatic Microsome CLh,int NADPH(+); for Mouse Hepatic Microsome CLh,int NADPH(-): absence of NADPH. It counts as in vitro ADME, mouse. (In general: Liver microsomes are a subcellular fraction often used to study metabolism.)

The source of these data is patent publication EP4768499A1, “MACROCYCLIC PEPTIDE COMPOUND HAVING CELL MEMBRANE PERMEABILITY AND METABOLIC STABILITY, AND LIBRARY CONTAINING SAME” (Chugai Seiyaku Kabushiki Kaisha, priority 2023, dated 2025).

Starred links: 1 amine or outer side, 2 acyl side, 3 side chain; linkers in the order of their positions; H or OH if unused. Positions of bridges follow the written chain, without caps; N, C: chain ends. Non-standard residues stand in square brackets, D forms with d. Residues, ends and D or L forms follow the SMILES beside them. *: point of attachment. NMeF = CN[C@@H](Cc1ccccc1)C(=O)O; NMeGABA = CN(CCCC(=O)[*:2])[*:1]; NMeI = CC[C@H](C)[C@H](NC)C(=O)O; NMeT = CN[C@H](C(=O)O)[C@@H](C)O; hPhe = N[C@@H](CCc1ccccc1)C(=O)O; NMeL = CN[C@@H](CC(C)C)C(=O)O; NMeV = CN[C@H](C(=O)O)C(C)C; NMeAbu = CC[C@H](NC)C(=O)O; NMeA = CN[C@@H](C)C(=O)O; Piperidide = C1CCN(*)CC1; Abu = CC[C@H](N)C(=O)O; Sar = CNCC(=O)O; tBu = CC(C)(C)*

With `CC[C@H](C)[C@@H]1NC(=O)[C@H](CC(C)C)N(C)C(=O)CN(C)C(=O)C[C@@H](C(=O)N2CCCCC2)NC(=O)[C@H](C)N(C)C(=O)CNC(=O)[C@H](C(C)C)N(C)C(=O)[C@H](C)N(C)C(=O)[C@H](Cc2ccccc2)N(C)C(=O)[C@H](C(C)C)NC(=O)[C@H](CC(C)C)NC(=O)[C@H](Cc2ccccc2)N(C)C(=O)[C@H]([C@@H](C)O)NC(=O)[C@H](CC(C)C)N(C)C1=O` [pd039] ([Sar][NMeL]I[NMeL]T[NMeF]LV[NMeF][NMeA][NMeV]G[NMeA]D-Piperidide; lactam N-14), in data set [1], the Papp A→B came to 0.03 ×10⁻⁶ cm/s. For the same compound, the “Caco2 Papp (10^-6 cm/sec)” value in the data set with Caco-2 cells is reported as 0.03 10^-6 cm/sec. In addition, in data set [2], the microsomal CLint at 1 µM is 21.4 µL/min/mg and the “Mouse Hepatic Microsome CLh,int NADPH(-)” value came out at 15.6 µL/min/mg Protein.

On to `CC(C)C[C@@H]1NC(=O)[C@H]([C@@H](C)O)N(C)C(=O)[C@@H](C(C)C)NC(=O)C[C@@H](C(=O)N2CCCCC2)NC(=O)[C@H](C(C)C)N(C)C(=O)[C@H](C)N(C)C(=O)[C@H](C(C)C)NC(=O)[C@H](Cc2ccccc2)N(C)C(=O)[C@@H]2CCCN2C(=O)[C@H](CC(C)C)N(C)C(=O)CN(C)C(=O)[C@H](CCc2ccccc2)NC(=O)[C@H](CC(C)C)N(C)C(=O)[C@H](C(C)C)N(C)C1=O` [pd040] ([dV][NMeT]L[NMeV][NMeL][hPhe][Sar][NMeL]P[NMeF]V[NMeA][NMeV]D-Piperidide; lactam N-14), for which, in data set [1], the Papp A→B was found to be 0.17 ×10⁻⁶ cm/s. Besides, the “Caco2 Papp (10^-6 cm/sec)” value with Caco-2 cells was 0.17 10^-6 cm/sec. In data set [2], the microsomal CLint at 1 µM was 24.8 µL/min/mg and the “Mouse Hepatic Microsome CLh,int NADPH(-)” value is on record as 22.3 µL/min/mg Protein.

`CC[C@H](C)[C@@H]1NC(=O)[C@H](C)N(C)C(=O)[C@H]([C@@H](C)O)NC(=O)[C@H](CC(C)C)N(C)C(=O)[C@H](CC)N(C)C(=O)[C@H](Cc2ccccc2)N(C)C(=O)[C@H](C)NC(=O)[C@H](Cc2ccccc2)N(C)C(=O)[C@H](C)N(C)C(=O)[C@H](CC(C)C)N(C)C(=O)[C@H](CC(C)C)NC(=O)CCCN(C)C(=O)C[C@@H](C(=O)N2CCCCC2)NC(=O)[C@H](CC(C)C)N(C)C1=O` [pd041] ([NMeGABA]L[NMeL][NMeA][NMeF]A[NMeF][NMeAbu][NMeL]T[NMeA]I[NMeL]D-Piperidide; lactam N-14): in data set [1], the Papp A→B turned out to be 0.13 ×10⁻⁶ cm/s. The “Caco2 Papp (10^-6 cm/sec)” value with Caco-2 cells is 0.13 10^-6 cm/sec. In addition, in data set [2], the microsomal CLint at 1 µM worked out at 25.1 µL/min/mg and the “Mouse Hepatic Microsome CLh,int NADPH(-)” value amounted to 23.5 µL/min/mg Protein.

As for `CC[C@H](C)[C@H]1C(=O)N[C@@H](Cc2ccccc2)C(=O)N2CCC[C@H]2C(=O)N(C)[C@@H](CC(C)C)C(=O)N[C@@H](COC(C)(C)C)C(=O)N(C)[C@@H](Cc2ccccc2)C(=O)N[C@@H]([C@@H](C)O)C(=O)N(C)[C@@H](CC)C(=O)N2CCC[C@H]2C(=O)N(C)[C@@H](CC(C)C)C(=O)N[C@@H](C(C)C)C(=O)N[C@H](C(=O)N2CCCCC2)CC(=O)N(C)CCCC(=O)N(C)[C@@H](CC(C)C)C(=O)N1C` [pd042] ([NMeGABA][NMeL][NMeI]FP[NMeL]S(tBu)[NMeF]T[NMeAbu]P[NMeL]VD-Piperidide; lactam N-14), in data set [1], the Papp A→B stood at 0.59 ×10⁻⁶ cm/s. Moreover, the “Caco2 Papp (10^-6 cm/sec)” value in the data set with Caco-2 cells is recorded as 0.59 10^-6 cm/sec. In data set [2], the microsomal CLint at 1 µM was 32.3 µL/min/mg and the “Mouse Hepatic Microsome CLh,int NADPH(-)” value came to 18.1 µL/min/mg Protein.

For the compound `CC[C@H](C)[C@@H]1NC(=O)[C@@H]2CCCN2C(=O)[C@H](CC(C)C)N(C)C(=O)[C@H](CC(C)C)NC(=O)[C@H]([C@@H](C)CC)N(C)C(=O)[C@H]([C@@H](C)O)NC(=O)[C@H](Cc2ccccc2)N(C)C(=O)[C@H](CC)N(C)C(=O)[C@H](Cc2ccccc2)N(C)C(=O)[C@H](C(C)C)NC(=O)[C@H](CC(C)C)N(C)C(=O)[C@H](C)N(C)C(=O)C[C@@H](C(=O)N2CCCCC2)NC(=O)[C@H](C(C)C)N(C)C1=O` [pd043] ([NMeA][NMeL]V[NMeF][NMeAbu][NMeF]T[NMeI]L[NMeL]PI[NMeV]D-Piperidide; lactam N-14), the Papp A→B in data set [1] came out at 0.16 ×10⁻⁶ cm/s. Besides, the “Caco2 Papp (10^-6 cm/sec)” value with Caco-2 cells was 0.16 10^-6 cm/sec. Further, in data set [2], the microsomal CLint at 1 µM worked out at 40.7 µL/min/mg and the “Mouse Hepatic Microsome CLh,int NADPH(-)” value worked out at 34.8 µL/min/mg Protein.

On to `CC[C@H](C)[C@H]1C(=O)N[C@@H]([C@@H](C)O)C(=O)N(C)CC(=O)N(C)[C@@H](CC(C)C)C(=O)N(C)[C@@H](Cc2ccccc2)C(=O)N[C@H](C(=O)N2CCCCC2)CC(=O)N(C)[C@@H](C)C(=O)N[C@@H](CC(C)C)C(=O)N(C)[C@@H](Cc2ccccc2)C(=O)N(C)[C@@H](C)C(=O)N(C)[C@@H](CC(C)C)C(=O)N[C@@H](COC(C)(C)C)C(=O)N(C)[C@@H](C)C(=O)N[C@@H](CC(C)C)C(=O)N1C` [pd044] ([NMeA]L[NMeF][NMeA][NMeL]S(tBu)[NMeA]L[NMeI]T[Sar][NMeL][NMeF]D-Piperidide; lactam N-14), for which, in data set [1], the Papp A→B is 0.83 ×10⁻⁶ cm/s. In addition, in the data set on Caco-2 cells, the “Caco2 Papp (10^-6 cm/sec)” value was 0.83 10^-6 cm/sec. In data set [2], the microsomal CLint at 1 µM was found to be 54.3 µL/min/mg and the “Mouse Hepatic Microsome CLh,int NADPH(-)” value stood at 33.1 µL/min/mg Protein.

For `CC[C@H](C)[C@@H]1NC(=O)[C@H](C)N(C)C(=O)C[C@@H](C(=O)N2CCCCC2)NC(=O)[C@H](CC)N(C)C(=O)[C@H](COC(C)(C)C)NC(=O)[C@H](CC(C)C)N(C)C(=O)[C@H](C)N(C)C(=O)[C@H](CC(C)C)N(C)C(=O)[C@H](Cc2ccccc2)N(C)C(=O)CN(C)C(=O)[C@H]([C@@H](C)O)NC(=O)[C@H](CC(C)C)N(C)C(=O)[C@H](C(C)C)NC(=O)[C@H](Cc2ccccc2)N(C)C1=O` [pd045] ([NMeA]I[NMeF]V[NMeL]T[Sar][NMeF][NMeL][NMeA][NMeL]S(tBu)[NMeAbu]D-Piperidide; lactam N-14), the Papp A→B in data set [1] was 0.32 ×10⁻⁶ cm/s. Further, the “Caco2 Papp (10^-6 cm/sec)” value in the data set with Caco-2 cells is reported as 0.32 10^-6 cm/sec. Further, in data set [2], the microsomal CLint at 1 µM was determined as 43.9 µL/min/mg and the “Mouse Hepatic Microsome CLh,int NADPH(-)” value is given as 26.4 µL/min/mg Protein.

Take `CC[C@@H]1NC(=O)[C@H](C)N(C)C(=O)[C@H](CC(C)C)N(C)C(=O)[C@H]([C@@H](C)O)N(C)C(=O)[C@H](CC(C)C)N(C)C(=O)[C@H](C)NC(=O)[C@H](Cc2ccccc2)N(C)C(=O)CN(C)C(=O)C[C@@H](C(=O)N2CCCCC2)NC(=O)[C@H](C(C)C)N(C)C(=O)[C@H](C)NC(=O)[C@@H]2CCCN2C(=O)[C@H](C(C)C)NC(=O)[C@H](Cc2ccccc2)N(C)C1=O` [pd046] ([Sar][NMeF]A[NMeL][NMeT][NMeL][NMeA][Abu][NMeF]VPA[NMeV]D-Piperidide; lactam N-14): in data set [1], the Papp A→B worked out at 0.06 ×10⁻⁶ cm/s. In addition, the “Caco2 Papp (10^-6 cm/sec)” value in the data set with Caco-2 cells is 0.06 10^-6 cm/sec. Moreover, in data set [2], the microsomal CLint at 1 µM was determined as 6.2 µL/min/mg and the “Mouse Hepatic Microsome CLh,int NADPH(-)” value was 5.4 µL/min/mg Protein.

For `CC(C)C[C@H]1C(=O)N2CCC[C@H]2C(=O)N(C)[C@@H](Cc2ccccc2)C(=O)N[C@@H](C(C)C)C(=O)N(C)[C@@H](C)C(=O)N(C)[C@@H](C(C)C)C(=O)N[C@H](C(=O)N2CCCCC2)CC(=O)N[C@H](C(C)C)C(=O)N(C)[C@@H]([C@@H](C)O)C(=O)N(C)[C@@H](CC(C)C)C(=O)N(C)[C@@H](C(C)C)C(=O)N(C)[C@@H](CC(C)C)C(=O)N[C@@H](CCc2ccccc2)C(=O)N(C)CC(=O)N1C` [pd047] ([dV][NMeT][NMeL][NMeV][NMeL][hPhe][Sar][NMeL]P[NMeF]V[NMeA][NMeV]D-Piperidide; lactam N-14), the Papp A→B in data set [1] worked out at 0.16 ×10⁻⁶ cm/s. For the same compound, the “Caco2 Papp (10^-6 cm/sec)” value with Caco-2 cells is on record as 0.16 10^-6 cm/sec. In data set [2], the microsomal CLint at 1 µM amounted to 41.4 µL/min/mg and the “Mouse Hepatic Microsome CLh,int NADPH(-)” value came out at 30.0 µL/min/mg Protein.
